From patent publication US9814787B2, “Luciferin amides” (University of Massachusetts, priority 2013, dated 2017)
Entries after “also recorded” stand apart in the source; their conditions may differ.

Tests used:
[1] = tested on: live CHO cells expressing R218K luciferase; assay: Intact cell FAAH assay, light emission from live CHO cells expressing R218K luciferase; type: cell-based, Chinese hamster
Experimental: (§1) Chinese hamster ovary-K1 (CHO-K1) cells were grown in a CO2 incubator at 37° C. with 5% CO2 and were cultured in F-12K Nutrient Mixture (GIBCO) supplemented with 10% fetal bovine serum and 100 U/mL penicillin/streptomycin.
(§2) Wild-type and R218K mutant luciferases were cloned into the BamHI-NotI site of pCDNA 3.1 and transiently transfected into CHO-K1 cells with Lipofectamine 2000 in 96-well tissue culture-treated plates for intact cell assays, or 6-well plates for lysed cell assays. For intact cells, 0.075 μg plasmid/well was transfected; for lysed cells, 2.25 μg plasmid/well was transfected.
[…] The cells were incubated for one hour in the CO2 incubator at 37° C. Cells were then washed with Hank's balanced salt solution (HBSS) and overlaid with 60 μL a luciferin amide substrate in HBSS. Imaging assays were performed 3 minutes after substrate addition, with final substrate concentrations ranging from 0.122 to 250 μM.
Seven luciferin amides, i.e., Compounds 1-4, 9, 10, and 25, were tested in live CHO cells expressing R218K luciferase at various concentrations (i.e., 0.12 μM, 0.25 μM, 0.5 μM, 1 μM, 2 μM, 4 μM, 8 μM, 16 μM, 31 μM, 62 μM, 125 μM, and 250 μM).
(§3) Compound 25 and Compound 10, as well as their corresponding luciferins (i.e., D-Luciferin and CycLuc2, respectively), were tested in live CHO cells expressing wild-type (WT) luciferase or R218K (RK) luciferase at various concentrations (i.e., 0.125 μM, 0.25 μM, 0.5 μM, 1 μM, 2 μM, 4 μM, 8 μM, 16 μM, 31 μM, 62 μM, 125 μM, and 250 μM).

[2] = tested on: live CHO cells expressing wild-type (WT) luciferase; assay: Intact cell FAAH assay, light emission from live CHO cells expressing wild-type luciferase; type: cell-based, Chinese hamster; settings: all concentration levels
Experimental: as §1, §2
Medium was removed from transfected CHO cells and replaced with 60 μL Optimem with or without a FAAH inhibitor (10 μM). The cells were incubated for one hour in the CO2 incubator at 37° C. Cells were then washed with Hank's balanced salt solution (HBSS) and overlaid with 60 μL a luciferin amide substrate in HBSS. Imaging assays were performed 3 minutes after substrate addition, with final substrate concentrations ranging from 0.122 to 250 μM.
as §3

FAAH = target: T1, FAAH (Homo sapiens, UniProt O00519); assay: In vitro FAAH assay: luciferin amide treated with recombinant FAAH, then R218K luciferase, bioluminescence; type: biochemical; settings: 50 μM luciferin amide, 10 minutes at room temperature, R218K luciferase 3 μg/mL
T1 construct: purchased Cayman Chemical
T1 sequence (O00519 1-579): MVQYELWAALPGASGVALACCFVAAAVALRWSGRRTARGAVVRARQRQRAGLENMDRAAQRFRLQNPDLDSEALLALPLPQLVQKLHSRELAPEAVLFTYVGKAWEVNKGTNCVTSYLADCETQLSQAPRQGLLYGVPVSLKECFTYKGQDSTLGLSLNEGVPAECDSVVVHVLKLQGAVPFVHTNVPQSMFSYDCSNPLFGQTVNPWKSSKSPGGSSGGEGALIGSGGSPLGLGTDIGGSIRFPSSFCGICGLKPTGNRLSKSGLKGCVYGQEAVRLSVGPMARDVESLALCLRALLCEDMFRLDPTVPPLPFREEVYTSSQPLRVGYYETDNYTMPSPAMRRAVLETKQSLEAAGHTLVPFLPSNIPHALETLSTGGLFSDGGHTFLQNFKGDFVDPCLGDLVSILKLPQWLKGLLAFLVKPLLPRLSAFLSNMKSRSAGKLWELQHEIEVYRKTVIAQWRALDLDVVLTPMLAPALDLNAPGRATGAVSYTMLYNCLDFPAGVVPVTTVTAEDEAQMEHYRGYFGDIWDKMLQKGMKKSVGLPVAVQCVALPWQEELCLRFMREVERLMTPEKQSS
Experimental: Recombinant FAAH, FAAH assay buffer, and FAAH inhibitors URB-597, PF-750, and PF-3845 were purchased from Cayman Chemical.
Bioluminescence assays were performed in either a Turner Veritas luminometer or a Xenogen IVIS-100 imaging system. For Veritas experiments, white 96-well plates were used (Costar 3912). For IVIS experiments, black 96-well plates were used (Costar 3915).
Luciferin amides (50 μM) were treated with FAAH and FAAH buffer (Cayman Chemical) in the presence or absence of 50 μM FAAH inhibitor URB-597 or 50 μM luciferase inhibitor 2-(4′-methoxyphenyl)benzothiazole. After 10 minutes at room temperature, R218K mutant firefly luciferase was added at a concentration of 3 μg/mL and bioluminescence was detected on a Turner Veritas luminometer.
Four luciferin amides (50 μM), i.e., Compounds 1, 9, 10, and 25, were treated with a buffer alone, a buffer containing FAAH, a buffer containing FAAH+50 μM URB-597 (i.e., a FAAH inhibitor), or a buffer containing FAAH+50 μM luciferase inhibitor 2-(4′-methoxyphenyl)benzothiazole. After 10 minutes at room temperature, R218K luciferase was added at a concentration of 3 μg/mL and bioluminescence was detected on a Turner Veritas.
Three luciferin amides (50 μM), i.e., Compounds 2, 9, and 25, were treated with a buffer alone, a buffer containing FAAH, a buffer containing FAAH 1:10 (i.e., a ten-fold dilution of FAAH), a buffer containing pig liver esterase (PLE), or a buffer containing PLE 1:10 (i.e., a ten-fold dilution of PLE). After one hour at room temperature, R218K luciferase was added at a concentration of 3 μg/mL and bioluminescence was detected on a Turner Veritas.

[3] = tested on: FVB mice expressing luciferase in brain tissue; assay: In vivo bioluminescence imaging in brains of FVB mice injected with AAV9-luc+ in the striatum; settings: doses 200-fold and 1000-fold lower than standard D-luciferin dose
Experimental: FVB mice were injected with AAV9-luc+ in the brain striatum. Bioluminescence assays were performed approximately nine months after AAV injection. Each luciferin amide was diluted into PBS to the indicated concentration from a 50 mM DMSO stock solution and filtered (0.22 μm) prior to intraperitoneally injection (0.1 mL per mouse). Mice were anesthetized with isoflurane (2% in 1 L/min oxygen) and images acquired on a Xenogen IVIS 100 imaging system and analyzed with Living Image software.
Certain luciferin amides described herein were tested to determine whether they would image well in live mice. For these studies, FVB mice were injected with adeno-associated virus 9 (AAV9)-luciferase constructs into the brain striatum.
Bioluminescence imaging (BLI) in the brain is more challenging than imaging in the rest of the organism, in part because a luciferase substrate (i.e., a luciferin) must cross the blood-brain barrier. Therefore, the ability of a synthetic luciferin (i.e., Compound 9's corresponding luciferin (CycLuc1)) to allow bioluminescence imaging in these mice, as compared to the native firefly luciferase substrate (i.e., D-luciferin) was first tested. Specifically, each substrate was injected intraperitoneally (IP) in PBS at a volume of 0.1 mL, D-luciferin being at a concentration of 100 mM and CycLuc1 being at a concentration of 5 mM. […] CycLuc1 was then injected at a 320-fold lower dose (0.06 mL of 0.5 mM) than D-luciferin.
Specifically, Compound 9 (i.e., CycLuc1 amide) was injected at 0.5 mM in 0.5% DMSO/PBS (0.06 mL).
In this figure, mice in the top row were treated with luciferin amides in the amounts indicated in the figure, and the mice in the bottom row were the same mice that were imaged one day later using a standard dose of D-luciferin.

increase in bioluminescence signal on addition of FAAH versus buffer (FAAH): 139 fold
Structure (SMILES): CN1CCc2cc3nc(C4=N[C@@H](C(N)=O)CS4)sc3cc21 [Compound 10, (S)-4,5-dihydro-2-(6,7-dihydro-5-methyl-5H-thiazolo[4,5-f]indol-2-yl)thiazole-4-carboxamide]
effect of FAAH inhibitors URB-597, PF-750 and PF-3845 on light output ([1]; 50 μM FAAH inhibitor): complete inhibition
light emission relative to the corresponding luciferin (CycLuc2) ([1]; all concentrations tested, 0.12 to 250 μM): greater light emission than its corresponding luciferin; also recorded: greater light output than cells treated with Compound 10's corresponding luciferin
light output relative to other substrate-luciferase combinations ([1]; concentrations above 30 μM): only exceeded by cells expressing the wild-type luciferase and treated with D-luciferin
light emission relative to other substrate-luciferase combinations ([1]; substrate concentrations below 30 μM): higher light emission than all other substrate-luciferase combinations
light output relative to the corresponding luciferin (CycLuc2) [2]: greater light output than cells treated with Compound 10's corresponding luciferin
bioluminescence signal higher than standard D-luciferin imaging conditions [3]: 10 fold
